Results on 11 molecules are retold here after ChEMBL document CHEMBL1201862, “PubChem BioAssay data set” (2004).

Molecules are shown by their SMILES.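 Five compound concentrations were applied to cells in 96-well plates for 48 hours; endpoints were derived by simple linear interpolation of the resulting dose-response curve. Abbreviation: GI50, concentration required for 50% inhibition of growth.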 Calls of active or inactive are those of the source. Rule as the data show it: active = GI50 up to about 1.1 µM and inactive = higher.

Test systems include SK-OV-3; SF-295; MOLT-4; SK-MEL-5; COLO 205; OVCAR-8; U-251; LOX IMVI; NCI-H23; SF-268; EKVX; NCI-H460; Malme-3M; SNB-19; SN12C; HCC 2998; OVCAR-4; UO-31; OVCAR-3; TK-10.
Assay in all cases: inhibition of tumour cell growth, NCI panel, 48 h

Take `N/C(=N\O)N/N=C/c1ncccc1O`: the GI50 in the experiment on SK-OV-3 is 35.9 µM (inactive); with SF-295 it was 10.6 µM (inactive); with MOLT-4, 11.2 µM (inactive); in the experiment with SK-MEL-5, 11.4 µM (inactive); in the experiment with COLO 205, 11.9 µM (inactive); in the experiment on OVCAR-8, 5.04 µM (inactive). In addition, the GI50 is 15.5 µM (inactive) in the experiment on U-251; 11.2 µM (inactive) in the experiment with LOX IMVI; > 49 µM (inactive) in the experiment with NCI-H23; 22.7 µM (inactive) with SF-268; 22.1 µM (inactive) in the experiment with EKVX; 5.96 µM (inactive) with NCI-H460. For the same molecule, the GI50 with Malme-3M is 35.2 µM (inactive); with SNB-19, 33.8 µM (inactive); in the experiment with SN12C, 16.7 µM (inactive); with HCC 2998, 12.1 µM (inactive); with OVCAR-4, 18.1 µM (inactive); with UO-31, 13.3 µM (inactive). Also, the GI50 in the experiment on OVCAR-3 was 14.8 µM (inactive).

On to `N#Cc1c(N)c2c(c(-c3ccccc3)c1-c1ccccc1)C(=O)N(NC(=S)Nc1ccccc1)C2=O`, for which the GI50 was 68.5 µM (inactive) with SF-295; 46.8 µM (inactive) with MOLT-4; 43.1 µM (inactive) in the experiment with SK-MEL-5; 75.2 µM (inactive) in the experiment on COLO 205; 88.7 µM (inactive) with OVCAR-8; > 100 µM (inactive) in the experiment with U-251. Also, the GI50 in the experiment on LOX IMVI is 90.2 µM (inactive); in the experiment on TK-10, 84.5 µM (inactive); in the experiment with SF-268, > 100 µM (inactive); in the experiment on EKVX, > 100 µM (inactive); with NCI-H460 it was 61.4 µM (inactive); in the experiment on Malme-3M it was > 100 µM (inactive). Further, the GI50 with SNB-19 was > 100 µM (inactive); in the experiment on SN12C, > 100 µM (inactive); with HCC 2998, > 100 µM (inactive); in the experiment with OVCAR-4, 51.1 µM (inactive); with UO-31 it was 34.1 µM (inactive); in the experiment on OVCAR-3, 64.4 µM (inactive).

On to `N#C/C(=C\c1ccc(Cl)cc1)c1nc2ccccc2c(=O)[nH]1`, for which the GI50 in the experiment on SK-OV-3 was > 100 µM (inactive); with SF-295 it was 47.4 µM (inactive); with MOLT-4, > 100 µM (inactive); in the experiment with SK-MEL-5, > 100 µM (inactive); in the experiment with COLO 205 it was > 100 µM (inactive); in the experiment on OVCAR-8, > 100 µM (inactive). For the same molecule, the GI50 with U-251 was 52.5 µM (inactive); in the experiment on LOX IMVI, > 100 µM (inactive); in the experiment on TK-10 it was 76 µM (inactive); in the experiment on SF-268, 51.6 µM (inactive); in the experiment with EKVX, > 100 µM (inactive); with NCI-H460 it was > 100 µM (inactive). For the same molecule, the GI50 with Malme-3M was > 100 µM (inactive); with SNB-19, 85.9 µM (inactive); in the experiment with SN12C it was > 100 µM (inactive); in the experiment on HCC 2998, > 100 µM (inactive); in the experiment with OVCAR-4 it was > 100 µM (inactive); with UO-31, > 100 µM (inactive).

As for `Clc1cc(N/N=C(\c2ccccc2)c2ccccn2)ncn1`, the GI50 in the experiment on SK-OV-3 was 0.301 µM (active); with SF-295, 0.502 µM (active); in the experiment on MOLT-4 it was 0.0308 µM (active); in the experiment on SK-MEL-5 it was 0.254 µM (active); with COLO 205, < 0.01 µM (active); in the experiment on OVCAR-8, < 0.01 µM (active). Besides, the GI50 in the experiment on U-251 is 0.427 µM (active); with LOX IMVI, 0.281 µM (active); with TK-10 it was 0.0363 µM (active); in the experiment with NCI-H23, 0.0904 µM (active); in the experiment on SF-268, 0.489 µM (active); with EKVX it was 0.0215 µM (active). Moreover, the GI50 is 0.0262 µM (active) in the experiment on NCI-H460; < 0.01 µM (active) with Malme-3M; 1.85 µM (inactive) in the experiment with SNB-19; 5.94 µM (inactive) with HCC 2998; 10.9 µM (inactive) in the experiment on OVCAR-4; 0.324 µM (active) with UO-31. Further, the GI50 in the experiment with OVCAR-3 is 0.0223 µM (active).

On to `O=C(NN1C(=O)CSC1c1ccc(C(F)(F)F)cc1)c1ccncc1` (stereo not drawn), for which the GI50 with SK-OV-3, in the experiment on SF-295, with MOLT-4, with SK-MEL-5, in the experiment with OVCAR-8 and in the experiment on U-251 was > 100 µM (inactive) in each case. The GI50 in the experiment on LOX IMVI, in the experiment on NCI-H23, in the experiment on SF-268, with EKVX, in the experiment with NCI-H460 and with Malme-3M was > 100 µM (inactive) each time. For the same molecule, the GI50 in the experiment on SNB-19, in the experiment with SN12C, in the experiment with HCC 2998, in the experiment on OVCAR-4, with UO-31 and in the experiment with OVCAR-3 was > 100 µM (inactive) each time.

As to `O=c1oc2ccccc2n1P(=O)(Oc1ccc(Cl)cc1)n1c(=O)oc2ccccc21`, the GI50 with SK-OV-3 is > 100 µM (inactive); in the experiment on SF-295, 93.8 µM (inactive); in the experiment on MOLT-4, 39.5 µM (inactive); with SK-MEL-5, > 100 µM (inactive); in the experiment with COLO 205 it was > 100 µM (inactive); with OVCAR-8, > 100 µM (inactive). In addition, the GI50 in the experiment on U-251, in the experiment with LOX IMVI, in the experiment with TK-10, in the experiment on NCI-H23, in the experiment on SF-268 and with EKVX was > 100 µM (inactive) each time. In addition, the GI50 in the experiment on Malme-3M is > 100 µM (inactive); with SNB-19, > 100 µM (inactive); in the experiment on SN12C it was > 100 µM (inactive); in the experiment on HCC 2998, 46.6 µM (inactive); with OVCAR-4, > 100 µM (inactive); in the experiment with UO-31 it was > 100 µM (inactive). Besides, the GI50 in the experiment with OVCAR-3 is > 100 µM (inactive).

Regarding `CCCCCCCCCCCCCCCc1nnc(S)[nH]1`, the GI50 with SK-OV-3 is > 100 µM (inactive); with MOLT-4, 20.8 µM (inactive); with U-251, > 100 µM (inactive); with LOX IMVI, > 100 µM (inactive); with TK-10 it was > 100 µM (inactive); with NCI-H23, > 100 µM (inactive). Further, the GI50 with SF-268, with EKVX, with NCI-H460, in the experiment on Malme-3M, in the experiment with SNB-19 and in the experiment on SN12C was > 100 µM (inactive) throughout. For the same molecule, the GI50 with HCC 2998 was > 100 µM (inactive); in the experiment on OVCAR-4, 46.1 µM (inactive); with UO-31, 24 µM (inactive); with OVCAR-3, > 100 µM (inactive).

Consider `Nc1n[nH]c2c1Cc1c(n(Cc3ccc(Cl)cc3)c3ccccc13)C(=O)N2`, for which the GI50 with SK-OV-3 is 18.1 µM (inactive); with SF-295 it was 17.3 µM (inactive); in the experiment on MOLT-4, 5.66 µM (inactive); in the experiment on SK-MEL-5, 3.69 µM (inactive); in the experiment with COLO 205, 11.5 µM (inactive); in the experiment with OVCAR-8, 16.5 µM (inactive). Also, the GI50 in the experiment with U-251 was > 10 µM (inactive); in the experiment with LOX IMVI, 9.79 µM (inactive); in the experiment with TK-10, 15 µM (inactive); in the experiment on NCI-H23, 10.6 µM (inactive); with SF-268, 17.1 µM (inactive); in the experiment with EKVX, 18.7 µM (inactive). Moreover, the GI50 was 14 µM (inactive) in the experiment with NCI-H460; 14.7 µM (inactive) with Malme-3M; 14.5 µM (inactive) with SN12C; 10.4 µM (inactive) in the experiment on HCC 2998; 13.8 µM (inactive) with OVCAR-4; 4.82 µM (inactive) in the experiment with UO-31. Also, the GI50 in the experiment on OVCAR-3 was 14.1 µM (inactive).

Regarding `O=S1(=O)OCCOS(=O)(=O)C1Cc1cccc2ccccc12`, the GI50 in the experiment on SK-OV-3 is 27.5 µM (inactive); with SF-295, 32.3 µM (inactive); with MOLT-4, 23.7 µM (inactive); in the experiment on SK-MEL-5, 14.4 µM (inactive); in the experiment on COLO 205, 13.9 µM (inactive); with OVCAR-8, 17.7 µM (inactive). The GI50 in the experiment on U-251 is 18.2 µM (inactive); in the experiment on LOX IMVI, 20.5 µM (inactive); with TK-10 it was 30.7 µM (inactive); in the experiment on NCI-H23 it was 29.9 µM (inactive); in the experiment on SF-268 it was 14.5 µM (inactive); in the experiment on EKVX it was 30.3 µM (inactive). The GI50 in the experiment with NCI-H460 is 17 µM (inactive); with Malme-3M it was 16.1 µM (inactive); in the experiment on SNB-19 it was 25 µM (inactive); in the experiment with SN12C, 20.6 µM (inactive); with HCC 2998, 20.1 µM (inactive); in the experiment with OVCAR-4, 19.8 µM (inactive). For the same molecule, the GI50 in the experiment with UO-31 is 23.2 µM (inactive).

In the case of `CCOC(=O)CCc1c(C)c2c(O)cc(O)cc2oc1=O`, the GI50 in the experiment with SK-OV-3 is > 100 µM (inactive); in the experiment with SF-295, > 68.9 µM (inactive); in the experiment on MOLT-4, > 54.6 µM (inactive); with SK-MEL-5, > 100 µM (inactive); in the experiment with COLO 205, > 100 µM (inactive); with OVCAR-8, > 100 µM (inactive). Moreover, the GI50 was 53.8 µM (inactive) in the experiment with U-251; > 100 µM (inactive) in the experiment with LOX IMVI; > 100 µM (inactive) in the experiment on NCI-H23; > 100 µM (inactive) in the experiment with SF-268; > 100 µM (inactive) in the experiment on EKVX; > 100 µM (inactive) in the experiment with NCI-H460. For the same molecule, the GI50 with Malme-3M was > 100 µM (inactive); with SNB-19, > 84.1 µM (inactive); in the experiment on SN12C, > 100 µM (inactive); in the experiment with HCC 2998, > 100 µM (inactive); in the experiment with OVCAR-4 it was > 100 µM (inactive); with UO-31 it was > 87.1 µM (inactive). In addition, in the experiment with OVCAR-3, the GI50 was > 100 µM (inactive).

With `Nc1c(S(=O)(=O)O)cc(S(=O)(=O)O)c2ccc(/N=N/c3ccc(/C=C/c4ccc(/N=N/c5ccc6c(S(=O)(=O)O)cc(S(=O)(=O)O)c(N)c6c5O)cc4S(=O)(=O)O)c(S(=O)(=O)O)c3)c(O)c12`, the GI50 is 97.1 µM (inactive) with SK-OV-3; > 100 µM (inactive) with SF-295; > 100 µM (inactive) with MOLT-4; > 100 µM (inactive) with SK-MEL-5; > 100 µM (inactive) in the experiment with COLO 205; > 100 µM (inactive) in the experiment on OVCAR-8. For the same molecule, the GI50 with U-251 was > 100 µM (inactive); in the experiment with LOX IMVI, > 100 µM (inactive); in the experiment on NCI-H23, > 100 µM (inactive); with SF-268, > 100 µM (inactive); in the experiment with EKVX, > 100 µM (inactive); in the experiment with NCI-H460, > 92.7 µM (inactive). In addition, the GI50 in the experiment on Malme-3M is > 100 µM (inactive); with SNB-19, > 100 µM (inactive); in the experiment with SN12C, > 100 µM (inactive); in the experiment with HCC 2998 it was > 100 µM (inactive); in the experiment with OVCAR-4, > 57.9 µM (inactive); in the experiment on UO-31, 37.1 µM (inactive). Further, the GI50 with OVCAR-3 is > 100 µM (inactive).
